Assay results published in ChEMBL document CHEMBL1137168, “Tubulin inhibitors. Synthesis and biological activity of HTI-286 analogs with B-segment heterosubstituents” (Bioorg Med Chem Lett, 2004).

Tests used:
[1] = test system: KB 3-1; assay: Compound was tested for the cytotoxicity against KB-3-1 cell line; value ranges from 0.6-2 nM; format: functional, cell-based; conditions: Homo sapiens
[2] = test system: KB; assay: Compound was tested for the cytotoxicity against KB-8-5 cell line expressing P-glycoprotein; value ranges from 1.2-5 nM; format: functional, cell-based; conditions: Homo sapiens
[3] = test system: KB 3-1; assay: Compound was tested for the cytotoxicity against KB-3-1 cell line; format: functional, cell-based; conditions: Homo sapiens
[4] = test system: Tubulin; assay: Compound was evaluated for the inhibition of MAP-rich tubulin polymerisation at 0.3 uM
[5] = test system: KB-V1 (Homo sapiens); assay: Compound was tested for the cytotoxicity against KB-V1 cell line expressing P-glycoprotein
[6] = test system: KB; assay: Compound was tested for the cytotoxicity against KB-8-5 cell line expressing P-glycoprotein; format: functional, cell-based; conditions: Homo sapiens
[7] = test system: KB 3-1; assay: Compound was tested for the cytotoxicity against KB-3-1 cell line; value ranges from 2-6 nM; format: functional, cell-based; conditions: Homo sapiens
[8] = test system: KB; assay: Compound was tested for the cytotoxicity against KB-8-5 cell line expressing P-glycoprotein; value ranges from 30-80 nM; format: functional, cell-based; conditions: Homo sapiens

CN[C@H](C(=O)N[C@H](C(=O)N(C)[C@H](/C=C(\C)C(=O)O)C(C)C)C(C)(C)C)C(C)(C)c1ccccc1 [TALTOBULIN]
IC50 [1]: 2 nM
IC50 [2]: 5 nM

CN[C@H](C(=O)N[C@H](C(=O)N(C)[C@H](/C=C(\C)C(=O)O)C(C)C)C(C)(C)c1ccc(OC)cc1)C(C)(C)c1ccccc1
IC50 [3]: 25.5 nM
inhibition [4]: 56%
IC50 [5]: 1790 nM
IC50 [6]: 54.9 nM

CN[C@H](C(=O)N[C@H](C(=O)N(C)[C@H](/C=C(\C)C(=O)O)C(C)C)C(C)(C)SCc1ccc(OC)cc1)C(C)(C)c1ccc(OC)cc1
IC50 [3]: 15.8 nM
inhibition [4]: 77%
IC50 [5]: 2090 nM
IC50 [6]: 43.7 nM

CN[C@H](C(=O)N[C@H](C(=O)N(C)[C@H](/C=C(\C)C(=O)O)C(C)C)C(C)(C)[S+](C)[O-])C(C)(C)c1ccccc1 (some centres not stated)
IC50 [3]: > 3000 nM
inhibition [4]: 43%
IC50 [5]: > 3000 nM
IC50 [6]: > 3000 nM

CN[C@H](C(=O)N[C@H](C(=O)N(C)[C@H](/C=C(\C)C(=O)O)C(C)C)C(C)(C)SC)C(C)(C)c1ccccc1
IC50 [3]: 1.2 nM
IC50 [5]: 144 nM
IC50 [6]: 2.2 nM

CN[C@H](C(=O)N[C@H](C(=O)N(C)[C@H](/C=C(\C)C(=O)O)C(C)C)C(C)(C)F)C(C)(C)c1ccccc1
IC50 [3]: 1.6 nM
inhibition [4]: 91%
IC50 [5]: 117 nM
IC50 [6]: 3.5 nM

CN[C@H](C(=O)N[C@H](C(=O)N(C)[C@H](/C=C(\C)C(=O)O)C(C)C)C(C)(C)SCc1ccc(OC)cc1)C(C)(C)c1ccccc1
IC50 [3]: 58.8 nM
inhibition [4]: 94%
IC50 [5]: 2290 nM
IC50 [6]: 93.7 nM

CN[C@H](C(=O)N[C@H](C(=O)N(C)[C@H](/C=C(\C)C(=O)O)C(C)C)C(C)(C)O)C(C)(C)c1ccccc1
IC50 [3]: 57.9 nM
inhibition [4]: 84%
IC50 [5]: > 3000 nM
IC50 [6]: 95 nM

CN[C@H](C(=O)N[C@H](C(=O)N(C)[C@H](/C=C(\C)C(=O)O)C(C)C)C(C)O)C(C)(C)c1ccccc1 (some centres not stated)
IC50 [3]: 275 nM
inhibition [4]: 91%
IC50 [5]: > 3000 nM
IC50 [6]: 692 nM

CN[C@H](C(=O)N[C@H](C(=O)N(C)[C@H](/C=C(\C)C(=O)O)C(C)C)C(C)OC)C(C)(C)c1ccccc1 (some centres not stated)
IC50 [3]: 871 nM
inhibition [4]: 95%
IC50 [5]: > 3000 nM
IC50 [6]: 1740 nM

CN[C@H](C(=O)N[C@@H](C(=O)N(C)[C@H](/C=C(\C)C(=O)O)C(C)C)C(C)O)C(C)(C)c1ccccc1 (some centres not stated)
IC50 [3]: > 3000 nM
inhibition [4]: 9%
IC50 [5]: > 3000 nM
IC50 [6]: > 3000 nM

CN[C@H](C(=O)N[C@H](C(=O)N(C)[C@H](/C=C(\C)C(=O)O)C(C)C)C(C)(C)SC)C(C)(C)c1ccc(OC)cc1
IC50 [3]: 0.64 nM
inhibition [4]: 88%
IC50 [5]: 62.4 nM
IC50 [6]: 1.8 nM

CC(=O)O[C@H]1C(=O)[C@@]2(C)[C@H]([C@H](OC(=O)c3ccccc3)[C@]3(O)C[C@H](OC(=O)[C@H](O)[C@@H](NC(=O)c4ccccc4)c4ccccc4)C(C)=C1C3(C)C)[C@]1(OC(C)=O)CO[C@@H]1C[C@@H]2O [PACLITAXEL]
IC50 [7]: 6 nM
IC50 [5]: > 3000 nM
IC50 [8]: 80 nM

CN[C@H](C(=O)N[C@H](C(=O)N(C)[C@H](/C=C(\C)C(=O)O)C(C)C)C(C)(C)S(C)(=O)=O)C(C)(C)c1ccccc1
IC50 [3]: 178 nM
inhibition [4]: 87%
IC50 [5]: > 3000 nM
IC50 [6]: 589 nM
